Assay results as given in US20240150368A1, “ULK INHIBITORS AND METHODS OF USE THEREOF” (Deciphera Pharmaceuticals, LLC, priority 2022, published 2024).

How the values were obtained:
ULK1 kinase = molecular target: T1, ULK1 kinase (Homo sapiens, UniProt O75385, E37A/K38A); experiment: Biochemical assay for ULK1 (coupled pyruvate kinase/lactate dehydrogenase assay); details: 1 mM ATP, 0.1 nM ULK1; read-out: ULK1 (inhibition of biochemical activity), IC50
T1 construct: (residues 1-283; ID NO: 1); purchased Beryllium
T1 sequence (O75385 1-283 E37A/K38A): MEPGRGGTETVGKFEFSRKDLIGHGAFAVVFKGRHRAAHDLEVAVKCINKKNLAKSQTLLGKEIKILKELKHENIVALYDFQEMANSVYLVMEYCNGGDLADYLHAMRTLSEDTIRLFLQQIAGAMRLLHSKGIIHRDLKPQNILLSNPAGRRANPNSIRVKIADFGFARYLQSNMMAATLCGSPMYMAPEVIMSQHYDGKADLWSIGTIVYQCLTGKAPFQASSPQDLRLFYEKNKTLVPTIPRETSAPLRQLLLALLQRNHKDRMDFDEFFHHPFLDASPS
How it was run: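 IC50 values were fitted to percent inhibition, normalised with no-compound and known-inhibitor controls, using rates from 2–3 h of a 6 h read at 30 °C. ADP was coupled through pyruvate kinase/lactate dehydrogenase to NADH loss at 340 nm.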

[1] = tested on: ULK kinase substrate ATG13 (pS318-ATG13) in MiaPaCa-2 cells; experiment: pATG13 levels of mutant KRas MiaPaCa-2 cells after treatment with ULK inhibitors in combination with trametinib (ELISA); assay type: cell-based, human
Procedure: pATG13 Levels of Mutant KRas MiaPaCa-2 Cells after Treatment with ULK Inhibitors in Combination with Trametinib
MiaPaCa-2 human pancreatic cancer cells (10000 cells/well) were added to a 384-well tissue-culture treated plate in 50 μL of pre-warmed DMEM medium supplemented with 10% characterized fetal bovine serum (Invitrogen, Carlsbad, CA), 100 units/mL penicillin G, 100 μg/mL streptomycin, and 2.5% Horse Serum and allowed to grow overnight at 37° C., 5% CO2, and 95% humidity. The following day, 10 μL of media containing trametinib or DMSO as a control was added to wells. The final concentration of trametinib in wells was 250 nM. A dose response of a test compound (0.6 μL per well) was added. DMSO (0.6 μL) was added to control wells. The plate was briefly shaken to mix wells and then incubated at 37° C. overnight. The next day, the media was aspirated and cells were washed with Dulbecco's Phosphate Buffered Saline (Gibco). Cells were lysed using MPER lysis buffer (Pierce, Rockford, IL) containing Halt Phosphatase and Protease Inhibitors (Pierce, Rockford, IL) and Phosphatase inhibitor cocktail 2 (Sigma, St. Louis, MO) at 4° C. for 10 minutes with shaking.
Cellular levels of phospho-Serine 318 ATG13 (pATG13) were measured via an ELISA method. Total ATG13 Antibody (Cell Signaling Cat #13273) was used to coat the wells. The plate was incubated at 4° C. overnight and washed with ELISA wash buffer (Biolegend Cat #421601). The wells were then blocked with assay diluent (Biolegend Cat #421203) for 1 h at rt. Plate wells were washed with ELISA wash buffer. Cell lysate was added to wells and incubated at rt for 2 h. Plate wells were washed with ELISA wash buffer. Biotinylated pS318-ATG13 antibody (Rockland Immunochemicals Cat #600-401-C49) was diluted in assay diluent and added to each well and incubated at rt for 1 h. Plate wells were washed with ELISA wash buffer. Streptavidin linked to horseradish peroxidase (Thermo Fisher Cat #21140) was diluted in assay diluent and added to each well and incubated at rt for 1 h. Plate wells were washed with ELISA wash buffer. High sensitivity TMB substrate (Biolegend Cat #421101) was added to each well and incubated at rt for 20 min. The reaction was stopped with 2.0N sulfuric acid. The plate was analyzed at on a plate reader measuring absorbance at 450 nm and 540 nm (background). Signal was calculated by first subtracting the background absorbance at 540 nm from the absorbance at 450 nm for each well. Next, the background corrected absorbance at 450 nm from blank wells was subtracted from test wells. Data was compared to control wells to determine % ATG13 phosphorylation. GraphPad Prism was used to calculate IC50 values.

ULK2 kinase = molecular target: T2, ULK2 kinase (Homo sapiens, UniProt Q8IYT8); experiment: Biochemical assay for ULK2 (coupled pyruvate kinase/lactate dehydrogenase assay); details: 1 mM ATP, 1 nM ULK2; read-out: ULK2 (inhibition of biochemical activity), IC50
T2 construct: (residues 1-306 with N-terminal GST and His tag; ID NO: 2); purchased Signal Chem U02-11G
T2 sequence (Q8IYT8 with tags, fused parts or gaps): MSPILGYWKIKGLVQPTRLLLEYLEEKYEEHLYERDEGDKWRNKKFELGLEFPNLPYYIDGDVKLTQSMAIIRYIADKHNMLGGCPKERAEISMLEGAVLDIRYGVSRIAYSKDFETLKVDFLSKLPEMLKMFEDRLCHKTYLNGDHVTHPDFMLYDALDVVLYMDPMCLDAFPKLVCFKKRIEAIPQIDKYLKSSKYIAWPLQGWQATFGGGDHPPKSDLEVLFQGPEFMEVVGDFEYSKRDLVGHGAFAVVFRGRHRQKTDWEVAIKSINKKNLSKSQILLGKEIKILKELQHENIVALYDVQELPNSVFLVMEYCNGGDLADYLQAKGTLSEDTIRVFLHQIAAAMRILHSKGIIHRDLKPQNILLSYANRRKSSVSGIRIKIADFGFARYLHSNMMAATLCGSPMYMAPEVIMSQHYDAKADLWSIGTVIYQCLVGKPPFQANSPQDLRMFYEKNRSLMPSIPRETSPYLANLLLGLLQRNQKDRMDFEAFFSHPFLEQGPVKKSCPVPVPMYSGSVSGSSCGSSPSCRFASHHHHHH
How it was run: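 Continuous PK/LDH-coupled NADH oxidation assay (A340) with 1 nM ULK2, 200 μM ULKtide and 1 mM ATP in Tris pH 7.5, 15 mM MgCl2, 1% DMSO, read 6 h at 30° C. Rates from the 2-3 h window converted to percent inhibition against no-compound and known-inhibitor controls; IC50 by four-parameter sigmoidal fit.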

SMILES	IC50 (ULK1 kinase) [nM]	IC50 [1] [nM]	IC50 (ULK2 kinase) [nM]
CC/C(Nc1cnn(C(C)C)c1)=C1/C(=O)Nc2ccc(C(=O)NCC3CCC(C)(C)O3)cc21 (centres unmarked) [Example 137]	≤ 10	100 to 300	10 to 100
CC/C(Nc1cnn(C2CCN(C(C)C)CC2)c1)=C1/C(=O)Nc2ccc(C(=O)NCC3CC(F)(F)C3)cc21 [Example 30]	≤ 10	≤ 100	≤ 10
CC/C(Nc1cn[nH]c1)=C1/C(=O)Nc2ccc(C(=O)NCC(F)(F)F)cc21 [Example 108]	10 to 100	100 to 300	10 to 100
CC/C(Nc1cnn(C(C)C)c1)=C1/C(=O)Nc2ccc(C(=O)NCC3(F)CC3)cc21 [Example 152]	≤ 10	≤ 100	≤ 10
CC/C(Nc1cnn(C2CCN(C(C)C)CC2)c1)=C1/C(=O)Nc2ccc(C(=O)NCC(C)(C)O)cc21 [Example 28]	10 to 100	≤ 100	10 to 100
CC/C(Nc1cnn(C2CCOCC2)c1)=C1/C(=O)Nc2ccc(C(=O)NCC(F)(F)F)cc21 [Example 106]	≤ 10	≤ 100	10 to 100
CC/C(Nc1cn(C(C)C)nn1)=C1/C(=O)Nc2ccc(C(=O)NCC(F)(F)F)cc21 [Example 122]	10 to 100	100 to 300	10 to 100
CC/C(Nc1cnn(C)c1)=C1/C(=O)Nc2ccc(C(=O)NCC3(F)CC3)cc21 [Example 154]	≤ 10	≤ 100	10 to 100
CC/C(Nc1cnn(C(C)C)c1)=C1/C(=O)Nc2ccc(C(=O)NCC3(C)CCOC3)cc21 (centres unmarked) [Example 168]	10 to 100	100 to 300	10 to 100
CC/C(Nc1cnn(C2CCN(C(C)C)CC2)c1)=C1/C(=O)Nc2ccc(C(=O)NC[C@@H](C)OC)cc21 [Example 58]	10 to 100	≤ 100	100 to 500
CC/C(Nc1cnc(N2CCN(C(C)C)CC2)cn1)=C1/C(=O)Nc2ccc(C(=O)NCC(F)(F)F)cc21 [Example 94]	10 to 100	≤ 100	10 to 100
CC/C(Nc1cnn(C2CCN(C(C)C)CC2)c1)=C1/C(=O)Nc2ccc(C(=O)N(C)CC(F)(F)F)cc21 [Example 7]	≤ 10	≤ 100	10 to 100
CC/C(Nc1cnn(C(F)(F)F)c1)=C1/C(=O)Nc2ccc(C(=O)NCC(C)C)cc21 [Example 169]	10 to 100	100 to 300	10 to 100
CC/C(Nc1cccnc1)=C1/C(=O)Nc2ccc(C(=O)NCC(F)(F)F)cc21 [Example 124]	100 to 500	300 to 600	> 500
CC/C(Nc1cnn(C2CCN(C(C)C)CC2)c1)=C1/C(=O)Nc2ccc(C(=O)NCC3CC3)cc21 [Example 42]	≤ 10	≤ 100	10 to 100
CC/C(Nc1cnn(C(C)C)c1)=C1/C(=O)Nc2ccc(C(=O)NCC(F)(F)F)cc21 [Example 4, (Z)-3-(1-((1-isopropyl-1H-pyrazol-4-yl)amino)propylidene)-2-oxo-N-(2,2,2-trifluoroethyl)indoline-5-carboxamide]	≤ 10	≤ 100	10 to 100

SMILES	IC50 (ULK1 kinase) [nM]	IC50 [1] [nM]	IC50 (ULK2 kinase) [nM]
CC/C(Nc1cnn(C(C)C)c1)=C1/C(=O)Nc2ccc(C(=O)NC[C@H]3CCCO3)cc21 [Example 95]	≤ 10	≤ 100	10 to 100
CC/C(Nc1cnn(C2CCN(C(C)C)CC2)c1)=C1/C(=O)Nc2ccc(C(=O)NCCC#N)cc21 [Example 26]	≤ 10	≤ 100	10 to 100
CC/C(Nc1ccc2nn(C(C)C)cc2c1)=C1/C(=O)Nc2ccc(C(=O)NCC(F)(F)F)cc21 [Example 142]	10 to 100	100 to 300	10 to 100
C/C(Nc1cnn(C(C)C)c1)=C1/C(=O)Nc2ccc(C(=O)NCC(F)(F)F)cc21 [Example 101]	≤ 10	≤ 100	10 to 100
CC/C(Nc1cnn(CCOC)c1)=C1/C(=O)Nc2ccc(C(=O)NCC(F)(F)F)cc21 [Example 102]	10 to 100	≤ 100	10 to 100
CC/C(Nc1cnn(C(C)C)c1)=C1/C(=O)Nc2ccc(C(=O)NCC3CC(F)(F)C3)cc21 [Example 134]	≤ 10	≤ 100	10 to 100
CC/C(Nc1cnn(C(C)C)c1)=C1/C(=O)Nc2ccc(C(=O)NCC(C)C)cc21 [Example 130]	≤ 10	≤ 100	10 to 100
CC/C(Nc1cnn(C2CCN(C(C)C)CC2)c1)=C1/C(=O)Nc2ccc(C(=O)NCCC(F)(F)F)cc21 [Example 31]	≤ 10	≤ 100	≤ 10
CC/C(Nc1cnn(CC(F)(F)F)c1)=C1/C(=O)Nc2ccc(C(=O)NCC(C)(C)F)cc21 [Example 160]	≤ 10	≤ 100	10 to 100
CC/C(Nc1cnn(C2CCN(C(C)C)CC2)c1)=C1/C(=O)Nc2ccc(C(=O)NC3CC(F)(F)C3)cc21 [Example 29]	≤ 10	≤ 100	10 to 100
CC/C(Nc1cnn(C(C)C)c1)=C1/C(=O)Nc2ccc(C(=O)NCCOC)cc21 [Example 126]	10 to 100	100 to 300	100 to 500
CC/C(Nc1cnn(C(C)C)c1)=C1/C(=O)Nc2ccc(C(=O)NCCC#N)cc21 [Example 127]	10 to 100	100 to 300	10 to 100
CC/C(Nc1cnn(C2CCNCC2)c1)=C1/C(=O)Nc2ccc(C(=O)NC[C@H]3CCCO3)cc21 [Example 52]	≤ 10	≤ 100	10 to 100
CC/C(Nc1ccccn1)=C1/C(=O)Nc2ccc(C(=O)NCC(F)(F)F)cc21 [Example 145]	10 to 100	100 to 300	100 to 500
CC/C(Nc1cnn(C2CCN(C(C)C)CC2)c1)=C1/C(=O)Nc2ccc(C(=O)N(C)CCOC)cc21 [Example 9]	10 to 100	100 to 300	
